System: MV-4-11 cells
Experiment: Gene expression microarray analysis (Affymetrix PrimeView) and GSEA
Type: cell-based, human
Set-up: RFU PODN (11730768_x_at) / Fold change /veh PODN (11730768_x_at) / RFU LINC00158 (11744669_a_at) / Fold change /veh LINC00158 (11744669_a_at) / RFU DUSP10 (11751237_a_at) / Fold change /veh DUSP10 (11751237_a_at) / RFU ID3 (11757404_x_at) / Fold change /veh ID3 (11757404_x_at) / RFU PLEKHG5 (11737974_s_at) / Fold change /veh PLEKHG5 (11737974_s_at) / RFU LRRC4B (11730491_at) / Fold change /veh LRRC4B (11730491_at) / RFU GIMAP4 (11747438_a_at) / Fold change /veh GIMAP4 (11747438_a_at) / RFU KRT8 (11758183_x_at) / Fold change /veh KRT8 (11758183_x_at) / RFU CNN1 (11734310_a_at) / Fold change /veh CNN1 (11734310_a_at) / RFU VPS37D (11726825_at) / Fold change /veh VPS37D (11726825_at) / RFU C10orf10 (11716522_x_at) / Fold change /veh C10orf10 (11716522_x_at) / RFU KIR2DL2 /// KIR2DL4 /// KIR2DL5A /// KIR2DL5B /// KIR2DS1 /// KIR2DS2 /// KIR2DS3 /// KIR2DS4 /// KIR3DL3 /// KIR3DL3 /// KIR3DS1 (11738374_at) / Fold change /veh KIR2DL2 /// KIR2DL4 /// KIR2DL5A /// KIR2DL5B /// KIR2DS1 /// KIR2DS2 /// KIR2DS3 /// KIR2DS4 /// KIR3DL3 /// KIR3DL3 /// KIR3DS1 (11738374_at) / RFU C1QL1 (11718748_at) / Fold change /veh C1QL1 (11718748_at) / RFU TMPRSS4 (11747572_a_at) / Fold change /veh TMPRSS4 (11747572_a_at) / RFU HAMP (11756126_x_at) / Fold change /veh HAMP (11756126_x_at) / RFU RNFT2 (11725882_a_at) / Fold change /veh RNFT2 (11725882_a_at) / RFU NR4A2 (11747474_a_at) / Fold change /veh NR4A2 (11747474_a_at) / RFU ABCC12 (11746883_a_at) / Fold change /veh ABCC12 (11746883_a_at) / RFU TMEM136 (11760407_x_at) / Fold change /veh TMEM136 (11760407_x_at) / RFU CLDN22 /// WWC2 (11732394_at) / Fold change /veh CLDN22 /// WWC2 (11732394_at) / RFU HLA-DPB1 (11760878_x_at) / Fold change /veh HLA-DPB1 (11760878_x_at) / RFU SPINT1 (11716480_a_at) / Fold change /veh SPINT1 (11716480_a_at) / RFU GAP43 (11754022_s_at) / Fold change /veh GAP43 (11754022_s_at) / RFU A4GNT (11735810_at) / Fold change /veh A4GNT (11735810_at) / RFU PRB3 (11715151_x_at) / Fold change /veh PRB3 (11715151_x_at) / RFU TUBB4B (11761932_at) / Fold change /veh TUBB4B (11761932_at) / RFU CAPN14 (11732068_a_at) / Fold change /veh CAPN14 (11732068_a_at) / RFU TMCC2 (11721928_a_at) / Fold change /veh TMCC2 (11721928_a_at) / RFU IRGQ (11745062_a_at) / Fold change /veh IRGQ (11745062_a_at) / RFU FAM174B (11720279_a_at) / Fold change /veh FAM174B (11720279_a_at) / RFU TMPRSS4 (11748680_a_at) / Fold change /veh TMPRSS4 (11748680_a_at) / RFU FAM212B (11763350_a_at) / Fold change /veh FAM212B (11763350_a_at) / RFU PLEKHG5 (11743358_a_at) / Fold change /veh PLEKHG5 (11743358_a_at) / RFU ZSCAN30 (11745921_a_at) / Fold change /veh ZSCAN30 (11745921_a_at) / RFU CMKLR1 (11741424_a_at) / Fold change /veh CMKLR1 (11741424_a_at) / RFU LOC101060620 /// MAPK8IP1 (11723275_at) / Fold change /veh LOC101060620 /// MAPK8IP1 (11723275_at) / RFU SPTSSB (11747773_x_at) / Fold change /veh SPTSSB (11747773_x_at) / RFU PRSS12 (11739890_at) / Fold change /veh PRSS12 (11739890_at) / RFU BIN1 (11741810_x_at) / Fold change /veh BIN1 (11741810_x_at) / RFU WNT11 (11732464_a_at) / Fold change /veh WNT11 (11732464_a_at) / RFU C10orf10 (11716521_a_at) / Fold change /veh C10orf10 (11716521_a_at) / RFU C5orf56 (11738089_at) / Fold change /veh C5orf56 (11738089_at) / RFU CYB561 (11721691_x_at) / Fold change /veh CYB561 (11721691_x_at) / RFU ANKRD19P (11752326_a_at) / Fold change /veh ANKRD19P (11752326_a_at) / RFU OR2T12 /// OR2T33 /// OR2T8 (11738714_s_at) / Fold change /veh OR2T12 /// OR2T33 /// OR2T8 (11738714_s_at) / RFU VCAN (11748164_a_at) / Fold change /veh VCAN (11748164_a_at) / RFU JSRP1 (11732532_at) / Fold change /veh JSRP1 (11732532_at) / RFU KRTAP10-11 (11738290_x_at) / Fold change /veh KRTAP10-11 (11738290_x_at) / RFU MYO3A (11730013_a_at) / Fold change /veh MYO3A (11730013_a_at) / RFU EBF3 (11725865_a_at) / Fold change /veh EBF3 (11725865_a_at) / RFU CAMK2N1 (11719241_x_at) / Fold change /veh CAMK2N1 (11719241_x_at) / RFU C5orf56 (11738088_a_at) / Fold change /veh C5orf56 (11738088_a_at) / RFU OLFML3 (11715873_a_at) / Fold change /veh OLFML3 (11715873_a_at) / RFU LOC100653217 /// NTM (11731650_a_at) / Fold change /veh LOC100653217 /// NTM (11731650_a_at) / RFU MAPK11 (11762145_a_at) / Fold change /veh MAPK11 (11762145_a_at) / RFU FIZ1 (11724087_x_at) / Fold change /veh FIZ1 (11724087_x_at) / RFU OASL (11726364_x_at) / Fold change /veh OASL (11726364_x_at) / RFU SOX15 (11748057_x_at) / Fold change /veh SOX15 (11748057_x_at) / RFU CD79A (11719716_a_at) / Fold change /veh CD79A (11719716_a_at) / RFU HIST1H1D (11736915_at) / Fold change /veh HIST1H1D (11736915_at) / RFU CASKIN2 (11723855_a_at) / Fold change /veh CASKIN2 (11723855_a_at) / RFU LOC730098 (11760151_x_at) / Fold change /veh LOC730098 (11760151_x_at) / RFU OR4N2 (11742367_at) / Fold change /veh OR4N2 (11742367_at) / RFU PRRT2 (11749266_a_at) / Fold change /veh PRRT2 (11749266_a_at) / RFU SNX32 (11753110_a_at) / Fold change /veh SNX32 (11753110_a_at) / RFU CDHR5 (11726645_a_at) / Fold change /veh CDHR5 (11726645_a_at) / RFU RCAN1 (11760418_a_at) / Fold change /veh RCAN1 (11760418_a_at) / RFU FAM167A (11723789_a_at) / Fold change /veh FAM167A (11723789_a_at) / RFU FAM26E (11764081_at) / Fold change /veh FAM26E (11764081_at) / RFU ISYNA1 (11749810_s_at) / Fold change /veh ISYNA1 (11749810_s_at) / RFU ACY1 (11761880_at) / Fold change /veh ACY1 (11761880_at) / RFU 11764098_at / Fold change /veh 11764098_at / RFU SAMD14 (11745864_x_at) / Fold change /veh SAMD14 (11745864_x_at) / RFU NPB (11741838_a_at) / Fold change /veh NPB (11741838_a_at) / RFU TMPRSS6 (11731388_a_at) / Fold change /veh TMPRSS6 (11731388_a_at) / RFU KRTAP10-2 (11738614_at) / Fold change /veh KRTAP10-2 (11738614_at) / RFU ARHGAP8 /// PRR5-ARHGAP8 (11727945_x_at) / Fold change /veh ARHGAP8 /// PRR5-ARHGAP8 (11727945_x_at) / RFU KRTAP5-7 /// NADSYN1 (11734609_at) / Fold change /veh KRTAP5-7 /// NADSYN1 (11734609_at) / RFU RASL12 (11751679_a_at) / Fold change /veh RASL12 (11751679_a_at) / RFU CDKN2B (11736163_a_at) / Fold change /veh CDKN2B (11736163_a_at) / RFU PRF1 (11729649_at) / Fold change /veh PRF1 (11729649_at) / RFU, ZNF638 /// ZNF638-IT1 / Fold change vs veh, ZNF638 /// ZNF638-IT1 / RFU, PANK3 / Fold change vs veh, PANK3 / RFU, SH3YL1 / Fold change vs veh, SH3YL1 / RFU, ZEB2 / Fold change vs veh, ZEB2 / RFU, NRIP1 / Fold change vs veh, NRIP1 / RFU, PTTG1IP / Fold change vs veh, PTTG1IP / RFU, CAPN2 / Fold change vs veh, CAPN2 / RFU, MED14 / Fold change vs veh, MED14 / RFU, SNORA58 / Fold change vs veh, SNORA58 / RFU, C1orf63 / Fold change vs veh, C1orf63 / RFU, LRRFIP1 / Fold change vs veh, LRRFIP1 / RFU, NDUFAF7 / Fold change vs veh, NDUFAF7 / RFU, SLC12A2 / Fold change vs veh, SLC12A2 / RFU, IBTK / Fold change vs veh, IBTK / RFU, ESF1 / Fold change vs veh, ESF1 / Fold change vs veh, TMEM50B / RFU, TAOK1 / Fold change vs veh, TAOK1 / RFU, ACBD3 / Fold change vs veh, ACBD3 / RFU, TMA16 / Fold change vs veh, TMA16 / RFU, RWDD3 / Fold change vs veh, RWDD3 / RFU, BCAT1 / Fold change vs veh, BCAT1 / RFU, EDEM3 / Fold change vs veh, EDEM3 / RFU, TMEM33 / Fold change vs veh, TMEM33 / RFU, WDR75 / Fold change vs veh, WDR75 / RFU, AHCTF1 / Fold change vs veh, AHCTF1 / RFU, TFRC / Fold change vs veh, TFRC / RFU, ZDHHC17 / Fold change vs veh, ZDHHC17 / RFU, NOM1 / Fold change vs veh, NOM1 / RFU, ARL8B / Fold change vs veh, ARL8B / RFU, ZBTB11 / Fold change vs veh, ZBTB11 / RFU, TAMM41 / Fold change vs veh, TAMM41 / RFU, KIAA1704 /// LOC100996395 / Fold change vs veh, KIAA1704 /// LOC100996395 / RFU, ING1 / Fold change vs veh, ING1 / RFU, TRMT61B / Fold change vs veh, TRMT61B / RFU, FUBP3 / Fold change vs veh, FUBP3 / RFU, TP53 / Fold change vs veh, TP53 / RFU, TNKS2 / Fold change vs veh, TNKS2 / RFU, ZFP14 / Fold change vs veh, ZFP14 / RFU, ACTR2 / Fold change vs veh, ACTR2 / RFU, PPP3R1 / Fold change vs veh, PPP3R1 / RFU, PIK3R1 / Fold change vs veh, PIK3R1 / RFU, HNRNPA1 / Fold change vs veh, HNRNPA1 / RFU, RNF170 / Fold change vs veh, RNF170 / RFU, ZNF28 / Fold change vs veh, ZNF28 / RFU, RNGTT / Fold change vs veh, RNGTT / RFU, OGT / Fold change vs veh, OGT / RFU, BRD1 / Fold change vs veh, BRD1 / RFU, MARS / Fold change vs veh, MARS / RFU, ZNF655 / Fold change vs veh, ZNF655 / RFU, FAHD1 / Fold change vs veh, FAHD1 / RFU, BDP1 / Fold change vs veh, BDP1 / RFU, LRRCC1 / Fold change vs veh, LRRCC1 / RFU, ARID1A / Fold change vs veh, ARID1A / RFU, ZNF146 / Fold change vs veh, ZNF146 / RFU, ZNF330 / Fold change vs veh, ZNF330 / RFU, GPN3 / Fold change vs veh, GPN3 / RFU, C9orf123 / Fold change vs veh, C9orf123 / RFU, N4BP2L2 / Fold change vs veh, N4BP2L2 / RFU, ARFIP1 / Fold change vs veh, ARFIP1 / RFU, FAM179B / Fold change vs veh, FAM179B / RFU, BCL10 / Fold change vs veh, BCL10 / RFU, UHRF1BP1L / Fold change vs veh, UHRF1BP1L / RFU, BET1 / Fold change vs veh, BET1 / RFU, CNOT2 / Fold change vs veh, CNOT2 / RFU, ZNF268 / Fold change vs veh, ZNF268 / Fold change vs veh, ZNF507 / RFU, DGCR2 / Fold change vs veh, DGCR2 / RFU, WDSUB1 / Fold change vs veh, WDSUB1 / Fold change vs veh, HSP90B1 /// MIR3652 / RFU, ADSS / Fold change vs veh, ADSS / RFU, GK / Fold change vs veh, GK / RFU, ZNF148 / Fold change vs veh, ZNF148 / RFU, TAF9 / Fold change vs veh, TAF9 / RFU, SLC1A5 / Fold change vs veh, SLC1A5 / RFU, SLMO2 / Fold change vs veh, SLMO2 / RFU, ABCC4 / Fold change vs veh, ABCC4 / RFU, LOC101060439 /// RAP1B / Fold change vs veh, LOC101060439 /// RAP1B / RFU, RFX7 / Fold change vs veh, RFX7 / RFU, GTPBP10 / Fold change vs veh, GTPBP10 / RFU, CNEP1R1 / Fold change vs veh, CNEP1R1 / RFU, BIVM-ERCC5 /// ERCC5 / Fold change vs veh, BIVM-ERCC5 /// ERCC5 / RFU, ILF3 / Fold change vs veh, ILF3 / RFU 11762660_at / Fold change /veh 11762660_at / RFU VCAN (11757783_s_at) / Fold change /veh VCAN (11757783_s_at) / RFU DDX43 (11728927_at) / Fold change /veh DDX43 (11728927_at) / RFU KRT8 (11758188_x_at) / Fold change /veh KRT8 (11758188_x_at) / RFU NKD1 (11759106_at) / Fold change /veh NKD1 (11759106_at) / RFU SRD5A1 (11742802_a_at) / Fold change /veh SRD5A1 (11742802_a_at) / RFU TPSAB1 /// TPSB2 (11721975_s_at) / Fold change /veh TPSAB1 /// TPSB2 (11721975_s_at) / RFU GSTM3 (11746129_a_at) / Fold change /veh GSTM3 (11746129_a_at) / RFU IL23R (11737362_x_at) / Fold change /veh IL23R (11737362_x_at) / RFU TMEM51 (11727254_a_at) / Fold change /veh TMEM51 (11727254_a_at) / RFU PIWIL2 (11732686_x_at) / Fold change /veh PIWIL2 (11732686_x_at) / RFU ORM1 (11744905_x_at) / Fold change /veh ORM1 (11744905_x_at) / RFU CCDC152 (11743942_at) / Fold change /veh CCDC152 (11743942_at) / RFU ECM1 (11717891_a_at) / Fold change /veh ECM1 (11717891_a_at) / RFU IL23R (11748794_a_at) / Fold change /veh IL23R (11748794_a_at) / RFU TNFAIP8L3 (11732012_x_at) / Fold change /veh TNFAIP8L3 (11732012_x_at) / RFU MBOAT4 (11741988_at) / Fold change /veh MBOAT4 (11741988_at) / RFU 11764193_at / Fold change /veh 11764193_at / RFU TMEM53 (11763286_at) / Fold change /veh TMEM53 (11763286_at) / RFU MAGEB2 (11727129_at) / Fold change /veh MAGEB2 (11727129_at) / RFU TMEM200A (11744735_a_at) / Fold change /veh TMEM200A (11744735_a_at) / RFU CCDC152 (11751479_a_at) / Fold change /veh CCDC152 (11751479_a_at) / RFU FAM211A (11726209_a_at) / Fold change /veh FAM211A (11726209_a_at) / RFU RGS16 (11746705_a_at) / Fold change /veh RGS16 (11746705_a_at) / RFU VCAN (11755009_s_at) / Fold change /veh VCAN (11755009_s_at) / RFU RHOB (11743442_s_at) / Fold change /veh RHOB (11743442_s_at) / RFU RGS16 (11720943_a_at) / Fold change /veh RGS16 (11720943_a_at) / RFU RGS16 (11720944_at) / Fold change /veh RGS16 (11720944_at) / RFU, VPS4B / Fold change vs veh, VPS4B / RFU, CREB1 / Fold change vs veh, CREB1 / RFU, DNAJC13 / Fold change vs veh, DNAJC13 / RFU, GNAQ / Fold change vs veh, GNAQ / RFU, CDK5R1 / Fold change vs veh, CDK5R1 / RFU, ZRANB3 / Fold change vs veh, ZRANB3 / RFU, CUL4A / Fold change vs veh, CUL4A / RFU, CCNY / Fold change vs veh, CCNY / RFU, UFL1 / Fold change vs veh, UFL1 / RFU, COG3 / Fold change vs veh, COG3 / RFU, DIAPH2 / Fold change vs veh, DIAPH2 / RFU, SKA2 / Fold change vs veh, SKA2 / RFU, AFF3 / Fold change vs veh, AFF3 / RFU, LMF1 / Fold change vs veh, LMF1 / RFU, IPO11 / Fold change vs veh, IPO11 / RFU, DFFB / Fold change vs veh, DFFB / RFU, FOXP1 / Fold change vs veh, FOXP1 / RFU, CARD8 / Fold change vs veh, CARD8 / RFU, STRN3 / Fold change vs veh, STRN3 / RFU, ADK / Fold change vs veh, ADK / RFU, RASSF2 / Fold change vs veh, RASSF2 / RFU, WIPF1 / Fold change vs veh, WIPF1 / RFU, LARP1B / Fold change vs veh, LARP1B / RFU, RASA1 / Fold change vs veh, RASA1 / RFU, RB1 / Fold change vs veh, RB1 / RFU, PPFIA1 / Fold change vs veh, PPFIA1 / RFU, MAT2A / Fold change vs veh, MAT2A / RFU, CCT5 / Fold change vs veh, CCT5 / RFU, WDR92 / Fold change vs veh, WDR92 / RFU, CUX1 / Fold change vs veh, CUX1 / RFU, TTC7A / Fold change vs veh, TTC7A / RFU, TMEM135 / Fold change vs veh, TMEM135 / RFU, DEPTOR / Fold change vs veh, DEPTOR / RFU, CPM / Fold change vs veh, CPM / RFU, DNAJB6 / Fold change vs veh, DNAJB6 / RFU, CACNA2D3 / Fold change vs veh, CACNA2D3 / RFU, DTX4 / Fold change vs veh, DTX4 / RFU, TFCP2 / Fold change vs veh, TFCP2 / RFU, GMCL1 /// GMCL1P1 / Fold change vs veh, GMCL1 /// GMCL1P1 / RFU, AEBP2 / Fold change vs veh, AEBP2 / RFU, SNHG1 /// SNORD22 /// SNORD25 /// SNORD26 /// SNORD27 /// SNORD28 /// SNORD29 /// SNORD31 / Fold change vs veh, SNHG1 /// SNORD22 /// SNORD25 /// SNORD26 /// SNORD27 /// SNORD28 /// SNORD29 /// SNORD31 / Fold change (Aza/veh), C12orf56 (ProbeSet 11735607_a_at) / Fold change (ACY-1035/veh), C12orf56 (ProbeSet 11735607_a_at) / Fold change (Aza/veh), FGFR1OP (ProbeSet 11751329_s_at) / Fold change (ACY-1035/veh), FGFR1OP (ProbeSet 11751329_s_at) / Fold change (Aza/veh), VPS36 (ProbeSet 11739960_a_at) / Fold change (ACY-1035/veh), VPS36 (ProbeSet 11739960_a_at) / RFU SYPL1 (11715823_x_at) / Fold change /veh SYPL1 (11715823_x_at) / RFU IGFBP7 (11715501_s_at) / Fold change /veh IGFBP7 (11715501_s_at) / RFU REEP3 (11722064_at) / Fold change /veh REEP3 (11722064_at) / RFU IGLL1 (11728026_x_at) / Fold change /veh IGLL1 (11728026_x_at): dose or concentration left out as unconfirmed
Settings: MV-4-11 cells, 48 hours

Question: Nc1ccc(-c2cccs2)cc1NC(=O)c1ccc2c(c1)cc(C1CC1)n2CCN1CCOCC1 [ACY-1035] was tested. Which “RFU CDHR5 (11726645_a_at)” value did it give?
Answer: 42.85 RFU
